According to patent US20140256015A1, “CAGED COMPOUND WHICH CAN BE PHOTOACTIVATED SELECTIVELY FOR CELL TYPES” (Toho University, priority 2013, published 2014):

Columns and labels:
[1] = Photocleaving by 405 nm photoirradiation, monitored by C18 reverse phase HPLC; assay type: physicochemical; settings: 10^−5 M KMOPS solution (0.1% DMSO, pH 7.3), irradiation 0 to 30 s (Bhcmoc-propargyl) or 0 to 300 s (Gal-Bhcmoc-propargyl)
Text: The 10^−5 M KMOPS solution (0.1% DMSO, pH 7.3) of Gal-Bhcmoc-propargyl or Bhcmoc-propargyl was irradiated with light with 405 nm. The reaction progress was monitored over photoirradiation time by C18 reverse phase HPLC.

β-Gal = β-Gal (Escherichia coli, UniProt P00722); experiment: Conversion of Gal-Bhcmoc-propargyl to Bhcmoc-propargyl in the presence of β-Gal, followed by HPLC; assay type: biochemical; settings: 15 μM compound, β-Gal 0.25 ng/μL, 0.1 M phosphate buffer pH 7.3, 37° C., after 1 hour
β-Gal, sequence (P00722 2-1024): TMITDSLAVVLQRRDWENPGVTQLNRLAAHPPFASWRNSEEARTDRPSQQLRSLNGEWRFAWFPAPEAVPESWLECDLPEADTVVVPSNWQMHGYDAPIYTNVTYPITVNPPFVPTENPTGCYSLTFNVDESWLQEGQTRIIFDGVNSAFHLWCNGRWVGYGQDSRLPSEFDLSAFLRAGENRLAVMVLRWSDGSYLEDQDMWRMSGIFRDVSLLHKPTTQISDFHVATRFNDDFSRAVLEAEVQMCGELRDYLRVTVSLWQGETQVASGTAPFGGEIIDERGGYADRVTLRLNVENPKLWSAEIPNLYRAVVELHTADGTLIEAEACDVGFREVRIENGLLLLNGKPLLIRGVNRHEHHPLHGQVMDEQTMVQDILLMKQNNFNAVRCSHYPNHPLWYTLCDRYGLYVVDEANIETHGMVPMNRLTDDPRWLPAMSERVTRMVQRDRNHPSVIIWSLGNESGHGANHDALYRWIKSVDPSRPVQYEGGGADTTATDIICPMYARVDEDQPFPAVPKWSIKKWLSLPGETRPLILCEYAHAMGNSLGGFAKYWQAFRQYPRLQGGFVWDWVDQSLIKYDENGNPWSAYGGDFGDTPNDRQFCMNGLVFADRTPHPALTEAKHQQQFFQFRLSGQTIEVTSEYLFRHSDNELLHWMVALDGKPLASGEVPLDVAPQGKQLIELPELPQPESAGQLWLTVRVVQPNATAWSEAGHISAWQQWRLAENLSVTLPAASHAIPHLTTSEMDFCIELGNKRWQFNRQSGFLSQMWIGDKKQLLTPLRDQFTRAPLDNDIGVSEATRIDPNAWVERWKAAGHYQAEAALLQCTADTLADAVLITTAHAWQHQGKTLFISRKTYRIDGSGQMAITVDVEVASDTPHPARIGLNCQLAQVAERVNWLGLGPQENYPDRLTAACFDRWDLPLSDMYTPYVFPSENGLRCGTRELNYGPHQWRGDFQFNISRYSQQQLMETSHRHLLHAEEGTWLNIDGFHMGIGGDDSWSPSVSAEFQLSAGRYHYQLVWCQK
Protocol: To 0.1 M phosphate buffer (pH 7.3) containing Gal-Bhcmoc-propargyl (final concentration of 15 μM), mercaptoethanol (0.11 M), and magnesium chloride (1 mM), β-Gal was added to a final concentration of 0.25 ng/μL. While the reaction solution was kept at 37° C., the reaction progress was followed by HPLC (see Table 2 for analytical conditions).

[2] = UV spectrum (absorption wavelengths); assay type: physicochemical; settings: 10^−5 M KMOPS solution (0.1% DMSO, pH 7.3)
Protocol: UV spectra were measured for the 10^−5 M KMOPS solution (0.1% DMSO, pH 7.3) of Gal-Bhcmoc-propargyl and the 10^−5 M KMOPS solution (0.1% DMSO, pH 7.3) of Bhcmoc-propargyl.

For `C#CCNC(=O)OCc1cc(=O)oc2cc(O[C@@H]3O[C@H](CO)[C@H](O)[C@H](O)[C@H]3O)c(Br)cc12` [Gal-Bhcmoc-propargyl], the “photocleaving (decrease of compound) on 405-nm photoirradiation” value [1] was “no decrease was confirmed” and the “conversion to Bhcmoc-propargyl (Bhc group) by β-Gal” value (β-Gal) was “completely converted”.

For `C#CCNC(=O)OCc1cc(=O)oc2cc(O)c(Br)cc12` [Bhcmoc-propargyl, (6-bromo-7-hydroxycoumarin-4-yl)methoxycarbonylpropargylamide], the εmax [2] was 17400 M⁻¹ cm⁻¹, the λmax [2] was 369 nm and the “photocleaving (decrease of compound) on 405-nm photoirradiation” value [1] was “decreases in Bhcmoc-propargyl and increases in the photocleaved product could be confirmed”.
